Source: the NIST ThermoML archive (doi:10.1016/j.tca.2010.05.009)
± gives the expanded uncertainty stated by the source.

Details: Crystal; Differential scanning calorimeter

Question: With `CC(C)Cc1ccc(C(C)C(=O)O)cc1` (stereo unspecified) [ibuprofen] as the compound, how does the Normal melting temperature read?
Answer: Its Normal melting temperature is 75.1 ± 1 °C.
